Laboratory results taken from US20080228408A1, “Method for Determining the State of an Ensemble of Cells and System for the Implementation of the Method” (priority 2005, published 2008).

System: neuronal cells
Assay: Toxicogenomic DNA chip test: gene expression level (RES) in cells exposed to the compound compared to unexposed cells
Assay type: cell-based
Details: Neuron
Excerpt: One wishes to carry out the evaluation of the toxicity of a collection of (15) pesticides using a toxicogenomic analysis of the impact of these pesticides on neuronal cells, according to 4 modes of exposure of the cells to the compounds:
DNA chips built specifically to test the expression level of the 51 genes in cells under study, each chip being configured only for one gene in our case, each chip allowing to carry out for each gene a redundant number of measurements (16) in order to stabilize the levels of expression by analysing the results on average. The spots on the chips are numbered sp1 to sp16.
An automated device D5 allowing, on signal of execution of the C2 test, to take a E1 sample of the cell culture C (non exposed) and a E2 sample of the cell culture C exposed to the compound by the device described previously under the conditions specified with the configuration, then to use the D1 device to select a DNA chip corresponding to the gene specified at the time of the configuration, and to put the samples E1 and E2 thus obtained in the presence of the aforementioned DNA chip according to the methods described in the D1 device,
The result of a test, RES, transmitted by the Resource Unit to the PC, is a raw numerical value which indicates the expression level of the gene indicated in the configuration, for the cell exposed to the compound under the conditions of concentration and exposure duration specified in the configuration, compared to the expression level of the same gene in an unexposed cell of identical nature.
The following results are based on 3 evaluations, each using a different strategy, the target cells being neuronal cells, the mode of exposure being Expo11.
The results presented in table 2 show the values obtained in (052) for the evaluation of Paraquat according to the 4 modes Expo11, Expo12, Expo21, Expo22 carried out. The missing data are not relevant (ranging between 0.5 and 2 strictly).

For `C[n+]1ccc(-c2cc[n+](C)cc2)cc1` [Paraquat], the “A2M gene expression level RES (exposed/unexposed cells)” value (C1 (IC50), 24 h (Expo11)) was 0.43, the “AITCH gene expression level RES (exposed/unexposed cells)” value (C1 (IC50), 24 h (Expo11)) was 0.13 and the “ALB gene expression level RES (exposed/unexposed cells)” value (C1 (IC50), 24 h (Expo11)) was 0.57. The “APAF1 gene expression level RES (exposed/unexposed cells)” value (C1 (IC50), 24 h (Expo11)) was 0.47, the “AR gene expression level RES (exposed/unexposed cells)” value (C1 (IC50), 24 h (Expo11)) was 0.39 and the “ATF6 gene expression level RES (exposed/unexposed cells)” value (C1 (IC50), 24 h (Expo11)) was 0.48. The “ATM gene expression level RES (exposed/unexposed cells)” value (C1 (IC50), 24 h (Expo11)) was 0.42, the “BAX gene expression level RES (exposed/unexposed cells)” value (C1 (IC50), 24 h (Expo11)) was 0.40 and the “BCL2 gene expression level RES (exposed/unexposed cells)” value (C1 (IC50), 24 h (Expo11)) was 0.44. The “BZRP gene expression level RES (exposed/unexposed cells)” value (C1 (IC50), 24 h (Expo11)) was 0.53, the “C12ORF8 gene expression level RES (exposed/unexposed cells)” value (C1 (IC50), 24 h (Expo11)) was 0.57 and the “CALR gene expression level RES (exposed/unexposed cells)” value (C1 (IC50), 24 h (Expo11)) was 0.52. The “CDC25C gene expression level RES (exposed/unexposed cells)” value (C1 (IC50), 24 h (Expo11)) was 0.62, the “CDK4 gene expression level RES (exposed/unexposed cells)” value (C1 (IC50), 24 h (Expo11)) was 0.59 and the “CDKN1A gene expression level RES (exposed/unexposed cells)” value (C1 (IC50), 24 h (Expo11)) was 0.46. For the same compound, the “CREB1 gene expression level RES (exposed/unexposed cells)” value (C1 (IC50), 24 h (Expo11)) was 0.64, the “CTSB gene expression level RES (exposed/unexposed cells)” value (C1 (IC50), 24 h (Expo11)) was 0.51 and the “CTSD gene expression level RES (exposed/unexposed cells)” value (C1 (IC50), 24 h (Expo11)) was 0.39. For the same compound, the “EGF gene expression level RES (exposed/unexposed cells)” value (C1 (IC50), 24 h (Expo11)) was 0.47, the “EPHX1 gene expression level RES (exposed/unexposed cells)” value (C1 (IC50), 24 h (Expo11)) was 0.45 and the “FOS gene expression level RES (exposed/unexposed cells)” value (C1 (IC50), 24 h (Expo11)) was 0.43. For the same compound, the “GADD45A gene expression level RES (exposed/unexposed cells)” value (C1 (IC50), 24 h (Expo11)) was 0.54, the “GPX1 gene expression level RES (exposed/unexposed cells)” value (C1 (IC50), 24 h (Expo11)) was 0.49 and the “GSS gene expression level RES (exposed/unexposed cells)” value (C1 (IC50), 24 h (Expo11)) was 0.54. For the same compound, the “GSTM3 gene expression level RES (exposed/unexposed cells)” value (C1 (IC50), 24 h (Expo11)) was 0.71, the “HOXD1 gene expression level RES (exposed/unexposed cells)” value (C1 (IC50), 24 h (Expo11)) was 0.44 and the “HSPA5 gene expression level RES (exposed/unexposed cells)” value (C1 (IC50), 24 h (Expo11)) was 0.55. The “HSPA9B gene expression level RES (exposed/unexposed cells)” value (C1 (IC50), 24 h (Expo11)) was 0.58, the “JUN gene expression level RES (exposed/unexposed cells)” value (C1 (IC50), 24 h (Expo11)) was 0.61 and the “MDM2 gene expression level RES (exposed/unexposed cells)” value (C1 (IC50), 24 h (Expo11)) was 0.37. The “NFKB1 gene expression level RES (exposed/unexposed cells)” value (C1 (IC50), 24 h (Expo11)) was 0.54, the “NOS2A gene expression level RES (exposed/unexposed cells)” value (C1 (IC50), 24 h (Expo11)) was 0.54 and the “PARA gene expression level RES (exposed/unexposed cells)” value (C1 (IC50), 24 h (Expo11)) was 0.38. For the same compound, the “PGR gene expression level RES (exposed/unexposed cells)” value (C1 (IC50), 24 h (Expo11)) was 0.42, the “RAD50 gene expression level RES (exposed/unexposed cells)” value (C1 (IC50), 24 h (Expo11)) was 0.63 and the “RAD51 gene expression level RES (exposed/unexposed cells)” value (C1 (IC50), 24 h (Expo11)) was 0.49. For the same compound, the “SOD1 gene expression level RES (exposed/unexposed cells)” value (C1 (IC50), 24 h (Expo11)) was 0.76, the “TF1 gene expression level RES (exposed/unexposed cells)” value (C1 (IC50), 24 h (Expo11)) was 0.68 and the “THBS1 gene expression level RES (exposed/unexposed cells)” value (C1 (IC50), 24 h (Expo11)) was 0.39. For the same compound, the “TP53 gene expression level RES (exposed/unexposed cells)” value (C1 (IC50), 24 h (Expo11)) was 0.54, the “TUBA1 gene expression level RES (exposed/unexposed cells)” value (C1 (IC50), 24 h (Expo11)) was 0.38 and the “XBP1 gene expression level RES (exposed/unexposed cells)” value (C1 (IC50), 24 h (Expo11)) was 0.50. The “A2M gene expression level RES (exposed/unexposed cells)” value (C1 (IC50), 48 h (Expo12)) was 0.03, the “AITCH gene expression level RES (exposed/unexposed cells)” value (C1 (IC50), 48 h (Expo12)) was 0.03 and the “ALB gene expression level RES (exposed/unexposed cells)” value (C1 (IC50), 48 h (Expo12)) was 0.01. For the same compound, the “APAF1 gene expression level RES (exposed/unexposed cells)” value (C1 (IC50), 48 h (Expo12)) was 0.05, the “AR gene expression level RES (exposed/unexposed cells)” value (C1 (IC50), 48 h (Expo12)) was 0.04 and the “ATF6 gene expression level RES (exposed/unexposed cells)” value (C1 (IC50), 48 h (Expo12)) was 0.05. For the same compound, the “ATM gene expression level RES (exposed/unexposed cells)” value (C1 (IC50), 48 h (Expo12)) was 0.04, the “BAX gene expression level RES (exposed/unexposed cells)” value (C1 (IC50), 48 h (Expo12)) was 0.05 and the “BCL2 gene expression level RES (exposed/unexposed cells)” value (C1 (IC50), 48 h (Expo12)) was 0.04. For the same compound, the “BZRP gene expression level RES (exposed/unexposed cells)” value (C1 (IC50), 48 h (Expo12)) was 0.04, the “C12ORF8 gene expression level RES (exposed/unexposed cells)” value (C1 (IC50), 48 h (Expo12)) was 0.05 and the “CALR gene expression level RES (exposed/unexposed cells)” value (C1 (IC50), 48 h (Expo12)) was 0.04. The “CDC25C gene expression level RES (exposed/unexposed cells)” value (C1 (IC50), 48 h (Expo12)) was 0.04, the “CDK4 gene expression level RES (exposed/unexposed cells)” value (C1 (IC50), 48 h (Expo12)) was 0.06 and the “CDKN1A gene expression level RES (exposed/unexposed cells)” value (C1 (IC50), 48 h (Expo12)) was 0.02. For the same compound, the “CREB1 gene expression level RES (exposed/unexposed cells)” value (C1 (IC50), 48 h (Expo12)) was 0.03, the “CTSB gene expression level RES (exposed/unexposed cells)” value (C1 (IC50), 48 h (Expo12)) was 0.05 and the “CTSD gene expression level RES (exposed/unexposed cells)” value (C1 (IC50), 48 h (Expo12)) was 0.03. The “EGF gene expression level RES (exposed/unexposed cells)” value (C1 (IC50), 48 h (Expo12)) was 0.04, the “EPHX1 gene expression level RES (exposed/unexposed cells)” value (C1 (IC50), 48 h (Expo12)) was 0.07 and the “FOS gene expression level RES (exposed/unexposed cells)” value (C1 (IC50), 48 h (Expo12)) was 0.04. For the same compound, the “GADD45A gene expression level RES (exposed/unexposed cells)” value (C1 (IC50), 48 h (Expo12)) was 0.04, the “GPX1 gene expression level RES (exposed/unexposed cells)” value (C1 (IC50), 48 h (Expo12)) was 0.02 and the “GSS gene expression level RES (exposed/unexposed cells)” value (C1 (IC50), 48 h (Expo12)) was 0.04. For the same compound, the “GSTM3 gene expression level RES (exposed/unexposed cells)” value (C1 (IC50), 48 h (Expo12)) was 0.06, the “HOXD1 gene expression level RES (exposed/unexposed cells)” value (C1 (IC50), 48 h (Expo12)) was 0.03 and the “HSPA5 gene expression level RES (exposed/unexposed cells)” value (C1 (IC50), 48 h (Expo12)) was 0.06. For the same compound, the “HSPA9B gene expression level RES (exposed/unexposed cells)” value (C1 (IC50), 48 h (Expo12)) was 0.05, the “JUN gene expression level RES (exposed/unexposed cells)” value (C1 (IC50), 48 h (Expo12)) was 0.05 and the “MDM2 gene expression level RES (exposed/unexposed cells)” value (C1 (IC50), 48 h (Expo12)) was 0.05. The “NFKB1 gene expression level RES (exposed/unexposed cells)” value (C1 (IC50), 48 h (Expo12)) was 0.04, the “NOS2A gene expression level RES (exposed/unexposed cells)” value (C1 (IC50), 48 h (Expo12)) was 0.04 and the “PARA gene expression level RES (exposed/unexposed cells)” value (C1 (IC50), 48 h (Expo12)) was 0.04. For the same compound, the “PGR gene expression level RES (exposed/unexposed cells)” value (C1 (IC50), 48 h (Expo12)) was 0.04, the “RAD50 gene expression level RES (exposed/unexposed cells)” value (C1 (IC50), 48 h (Expo12)) was 0.06 and the “RAD51 gene expression level RES (exposed/unexposed cells)” value (C1 (IC50), 48 h (Expo12)) was 0.05. For the same compound, the “SOD1 gene expression level RES (exposed/unexposed cells)” value (C1 (IC50), 48 h (Expo12)) was 0.05, the “TF1 gene expression level RES (exposed/unexposed cells)” value (C1 (IC50), 48 h (Expo12)) was 0.05 and the “THBS1 gene expression level RES (exposed/unexposed cells)” value (C1 (IC50), 48 h (Expo12)) was 0.05. For the same compound, the “TP53 gene expression level RES (exposed/unexposed cells)” value (C1 (IC50), 48 h (Expo12)) was 0.05, the “TUBA1 gene expression level RES (exposed/unexposed cells)” value (C1 (IC50), 48 h (Expo12)) was 0.04 and the “XBP1 gene expression level RES (exposed/unexposed cells)” value (C1 (IC50), 48 h (Expo12)) was 0.05. For the same compound, the “A2M gene expression level RES (exposed/unexposed cells)” value (C2 (IC50/10), 24 h (Expo21)) was 0.14 and the “AITCH gene expression level RES (exposed/unexposed cells)” value (C2 (IC50/10), 24 h (Expo21)) was 0.08.
